Here are results for nine compounds from patent US20200253211A1, “PHOTODYNAMIC INHIBITION OF MICROBIAL PATHOGENS IN PLANTS” (SUNCOR ENERGY INC, priority 2017, published 2020).

The test system of experiment [1] is Sclerotinia homoeocarpa. As to the kind of experiment: Radial growth of dollar spot fungus on amended Potato Dextrose Agar, dark vs light. It is filed as cell-based.
Experiment [2] concerns Sclerotinia homoeocarpa. The experiment in a line: Radial growth of dollar spot fungus after treatment of plugs in PBS (24 well plates), dark vs light. It is filed as cell-based. The note with it: for inhibition at 500 µM / inhibition at 1500 µM: Clarireedia homoeocarpa. As for the experimental part: In this example, control of dollar spot fungus (Sclerotinia homoeocarpa) with chlorins combined with a chelating agent was assessed. Treatments were prepared in Phosphate Buffered Saline (PBS) in 24 well plates (in duplicates for light vs. dark incubation) at desired concentrations. Then, a 5 mm diameter plug of a Sclerotinia homoeocarpa isolate (3 isolates total tested) was inoculated into the PBS and incubated at 21° C. in the dark for 2 hours. After 2 hours, one of the 24 well plates (with isolates in triplicate) is left in the dark and one 24 well plate is placed under illumination for 1 hour (all at 21° C.). Following illumination, fungal plugs are removed from PBS, blotted dry on sterile filter paper and transferred to non-amended Potato Dextrose Agar (PDA). Radial growth of the fungus is monitored daily until the growth of S. homoeocarpa reaches the edge of the Petri-dish. Illumination is provided by LED lights emitting about 1000 μmol/m^2/s photosynthetically active radiation (PAR). In this example, control of dollar spot fungus (Sclerotinia homoeocarpa) with Zinc Protoporphyrin IX (Zn-PPIX) combined with EDTA was assessed. Treatments were prepared in Phosphate Buffered Saline (PBS) in 24 well plates (in duplicates for light vs. dark incubation) at desired concentrations. Then, a 5 mm diameter plug of a Sclerotinia homoeocarpa isolate (3 isolates total tested) was inoculated into the PBS and incubated at 21° C. in the dark for 2 hours. After 2 hours, one of the 24 well plates (with isolates in triplicate) is left in the dark and one 24 well plate is placed under illumination for 1 hour (all at 21° C.). Following illumination, fungal plugs are removed from PBS, blotted dry on sterile filter paper and transferred to non-amended Potato Dextrose Agar (PDA). Radial growth of the fungus is monitored daily until the growth of S. homoeocarpa reaches the edge of the Petri-dish. Illumination is provided by LED lights emitting about 1000 μmol/m^2/s photosynthetically active radiation (PAR). In this example, control of dollar spot fungus (Sclerotinia homoeocarpa) with bacteriochlorin combined with EDTA was assessed. Treatments were prepared in Phosphate Buffered Saline (PBS) in 24 well plates (in duplicates for light vs. dark incubation) at desired concentrations. Then, a 5 mm diameter plug of a Sclerotinia homoeocarpa isolate (3 isolates total tested) was inoculated into the PBS and incubated at 21° C. in the dark for 2 hours. After 2 hours, one of the 24 well plates (with isolates in triplicate) is left in the dark and one 24 well plate is placed under illumination for 1 hour (all at 21° C.). Following illumination, fungal plugs are removed from PBS, blotted dry on sterile filter paper and transferred to non-amended Potato Dextrose Agar (PDA). Radial growth of the fungus is monitored daily until the growth of S. homoeocarpa reaches the edge of the Petri-dish. Illumination is provided by LED lights emitting about 1000 μmol/m^2/s photosynthetically active radiation (PAR). In this example, control of dollar spot fungus (Sclerotinia homoeocarpa) with Aluminum chlorin e6 combined with EDTA was assessed. Treatments were prepared in Phosphate Buffered Saline (PBS) in 24 well plates (in duplicates for light vs. dark incubation) at desired concentrations. Then, a 5 mm diameter plug of a Sclerotinia homoeocarpa isolate (3 isolates total tested) was inoculated into the PBS and incubated at 21° C. in the dark for 2 hours. After 2 hours, one of the 24 well plates (with isolates in triplicate) is left in the dark and one 24 well plate is placed under illumination for 1 hour (all at 21° C.). Following illumination, fungal plugs are removed from PBS, blotted dry on sterile filter paper and transferred to non-amended Potato Dextrose Agar (PDA). Radial growth of the fungus is monitored daily until the growth of S. homoeocarpa reaches the edge of the Petri-dish. Illumination is provided by LED lights emitting about 1000 μmol/m^2/s photosynthetically active radiation (PAR). […]

Where [3] appears, read: Table 22A, dark, rate 10 μM, growth between 48 and 72 hours.
Setting [4] is: Table 22B, light, rate 10 μM, growth between 48 and 72 hours.
The mark [5] stands for this setting: Table 16B, light, Chlorin Rate 5 μM.
Setting [6] is: Table 16B, light, Chlorin Rate 10 μM.
Setting [7] is: Table 16B, light, Chlorin Rate 31 μM.
Where [8] appears, read: Table 17D, light, rate 31.62 μM.
[9] abbreviates: Table 17D, light, rate 316.2 μM.

As to `C=Cc1c(C)c2cc3nc(c(CC(=O)O)c4[n-]c(cc5nc(cc1[n-]2)C(C)=C5CC)c(C)c4C(=O)O)C(CCC(=O)O)C3C.[Co+2]` (centres unmarked) [CoCe6, reference compound], the % Inhibition (in general, the relative decrease from the control value, in per cent) in experiment [1] (Table 17A, dark, rate 10 μM) stood at 2.05%; in experiment [1] (Table 17A, dark, rate 31 μM) it was 4.92%; in experiment [1] (Table 17B, light, rate 10 μM) it was 3.0%; in experiment [1] (Table 17B, light, rate 31 μM) it was 3.9%. Moreover, the “Mean Radial Growth” value is on record as 13.3 mm in experiment [1] (Table 17A, dark, rate 10 μM); 12.9 mm in experiment [1] (Table 17A, dark, rate 31 μM); 12.4 mm in experiment [1] (Table 17B, light, rate 10 μM); 12.3 mm in experiment [1] (Table 17B, light, rate 31 μM).
As for `CC1=C(CCC(=O)O)c2cc3[nH]c(cc4nc(cc5[nH]c(cc1n2)c(C(C)O)c5C)C(C(C)O)=C4C)c(C)c3CCC(=O)O.Cl.Cl` (centres unmarked) [Hematoporphyrin IX dichloride (HemIX), hematoporphyrin IX dichloride], in experiment [2] (setting [3]), the “% Inhibition” value is reported as −5.45% and the “Mean Radial Growth” value is recorded as 15.06 mm. Besides, in experiment [2] (setting [4]), the “% Inhibition” value was determined as 38.87% and the “Mean Radial Growth” value is on record as 8.39 mm.
For Aluminum chlorin e6 [AlCe6], the “% Inhibition” value in experiment [1] (Table 16A, dark, rate 5 μM) is recorded as 1.85%; in experiment [1] (Table 16A, dark, rate 10 μM) it was 3.70%; in experiment [1] (Table 16A, dark, rate 31 μM), 3.09%; in experiment [1] (setting [5]), 11.0%; in experiment [1] (setting [6]), 41.6%; in experiment [1] (setting [7]) it was 100.0%. Also, the “% Inhibition” value in experiment [2] (Table 21A, dark, rate 1 μM) is recorded as −4%; in experiment [2] (Table 21A, dark, rate 10 μM), −5.33%; in experiment [2] (Table 21B, light, rate 1 μM), −2.18%; in experiment [2] (Table 21B, light, rate 10 μM) it was 62.45%. Also, the “Mean Radial Growth” value turned out to be 13.8 mm in experiment [1] (Table 16A, dark, rate 5 μM); 13.0 mm in experiment [1] (Table 16A, dark, rate 10 μM); 13.1 mm in experiment [1] (Table 16A, dark, rate 31 μM); 11.4 mm in experiment [1] (setting [5]); 7.5 mm in experiment [1] (setting [6]); 0.0 mm in experiment [1] (setting [7]). Besides, the “Mean Radial Growth” value was 13 mm in experiment [2] (Table 21A, dark, rate 1 μM); 13.17 mm in experiment [2] (Table 21A, dark, rate 10 μM); 13 mm in experiment [2] (Table 21B, light, rate 1 μM); 4.78 mm in experiment [2] (Table 21B, light, rate 10 μM).
Take `O=C(OC[C@H]1O[C@@H](OC(=O)c2cc(O)c(O)c(OC(=O)c3cc(O)c(O)c(O)c3)c2)[C@H](OC(=O)c2cc(O)c(O)c(OC(=O)c3cc(O)c(O)c(O)c3)c2)[C@@H](OC(=O)c2cc(O)c(O)c(OC(=O)c3cc(O)c(O)c(O)c3)c2)[C@@H]1OC(=O)c1cc(O)c(O)c(OC(=O)c2cc(O)c(O)c(O)c2)c1)c1cc(O)c(O)c(OC(=O)c2cc(O)c(O)c(O)c2)c1` [Tannic acid]: the inhibition (in general, the drop in the measured response relative to a control, in per cent) at 500 µM was -6.25% in experiment [2] (Table 25A, dark, rate 500 μM) and -9.69% in experiment [2] (Table 25B, light, rate 500 μM). The inhibition at 1500 µM in experiment [2] (Table 25A, dark, rate 1500 μM) was found to be 7.29%; in experiment [2] (Table 25B, light, rate 1500 μM), 16.3%. Further, the “Mean Radial Growth” value amounted to 11.33 mm in experiment [2] (Table 25A, dark, rate 500 μM); 9.89 mm in experiment [2] (Table 25A, dark, rate 1500 μM); 11.94 mm in experiment [2] (Table 25B, light, rate 500 μM); 9.11 mm in experiment [2] (Table 25B, light, rate 1500 μM).
With `C=CC1=C(C)c2cc3[n-]c(cc4[n-]c(cc5nc(cc1n2)C(C)=C5C=C)c(C)c4CCC(=O)O)c(CCC(=O)O)c3C.[Zn+2]` [Zn Protoporphyrin IX (PPIX), Zinc Protoporphyrin IX], in experiment [2] (Table 19A, light, rate 10 μM), the “% Inhibition” value is listed as 7.50% and the “Mean Radial Growth” value worked out at 10.28 mm.
For the compound `C[n+]1ccc(-c2c3nc(c(-c4cc[n+](C)cc4)c4ccc([nH]4)c(-c4cc[n+](C)cc4)c4nc(c(-c5cc[n+](C)cc5)c5ccc2[nH]5)C=C4)C=C3)cc1.Cc1ccc(S(=O)(=O)[O-])cc1.Cc1ccc(S(=O)(=O)[O-])cc1.Cc1ccc(S(=O)(=O)[O-])cc1.Cc1ccc(S(=O)(=O)[O-])cc1` [meso-Tetra (N-methyl-4-pyridyl) porphine tetra tosylate], in experiment [2] (Table 31A, dark, rate 0.1 μM), the “% Inhibition” value is recorded as 4.17% and the “Mean Radial Growth” value is 14.06 mm. For the same compound, in experiment [2] (Table 31B, light, rate 0.1 μM), the “% Inhibition” value was 34.63% and the “Mean Radial Growth” value was 8.39 mm.
For `C=Cc1c(C)c2cc3nc(c(CC(=O)O)c4[n-]c(cc5nc(cc1[n-]2)C(C)=C5CC)c(C)c4C(=O)O)C(CCC(=O)O)C3C.[Pd+2]` (centres unmarked) [PdCe6], the “% Inhibition” value in experiment [1] (Table 16A, dark, rate 5 μM) is 18.82%; in experiment [1] (Table 16A, dark, rate 10 μM), 36.47%; in experiment [1] (Table 16A, dark, rate 31 μM), 42.75%; in experiment [1] (setting [5]), 49.3%; in experiment [1] (setting [6]), 76.9%; in experiment [1] (setting [7]), 100.0%. Also, the “Mean Radial Growth” value was determined as 11.5 mm in experiment [1] (Table 16A, dark, rate 5 μM); 9.0 mm in experiment [1] (Table 16A, dark, rate 10 μM); 8.1 mm in experiment [1] (Table 16A, dark, rate 31 μM); 6.2 mm in experiment [1] (setting [5]); 2.8 mm in experiment [1] (setting [6]); 0 mm in experiment [1] (setting [7]).
In the case of `C=Cc1c(C)c2cc3nc(c(CC(=O)O)c4[n-]c(cc5nc(cc1[n-]2)C(C)=C5CC)c(C)c4C(=O)O)C(CCC(=O)O)C3C.[Zn+2]` (centres unmarked) [ZnCe6], the “% Inhibition” value came to 2.47% in experiment [1] (Table 16A, dark, rate 5 μM); 7.41% in experiment [1] (Table 16A, dark, rate 10 μM); 23.46% in experiment [1] (Table 16A, dark, rate 31 μM); 10.4% in experiment [1] (setting [5]); 21.4% in experiment [1] (setting [6]); 41.6% in experiment [1] (setting [7]). For the same compound, the “Mean Radial Growth” value in experiment [1] (Table 16A, dark, rate 5 μM) was found to be 13.2 mm; in experiment [1] (Table 16A, dark, rate 10 μM), 12.5 mm; in experiment [1] (Table 16A, dark, rate 31 μM), 10.3 mm; in experiment [1] (setting [5]), 11.5 mm; in experiment [1] (setting [6]) it was 10.1 mm; in experiment [1] (setting [7]) it was 7.5 mm.
Consider `C=Cc1c(C)c2cc3nc(c(CC(=O)[O-])c4[n-]c(cc5nc(cc1[n-]2)C(C)=C5CC)c(C)c4C(=O)[O-])C(CCC(=O)[O-])C3C.[Cu+2].[Na+].[Na+].[Na+]` (centres unmarked) [Cu Chlorophyllin (CuChln), Cu chlorophyllin, reference compound], for which the “% Inhibition” value in experiment [1] (Table 17C, dark, rate 31.62 μM) is on record as −3.13%; in experiment [1] (Table 17C, dark, rate 100 μM), −3.37%; in experiment [1] (Table 17C, dark, rate 316.2 μM), −5.29%; in experiment [1] (Table 17C, dark, rate 1000 μM), −3.85%; in experiment [1] (setting [8]) it was −18.93%; in experiment [1] (Table 17D, light, rate 100 μM) it was −20.34%. Further, the “% Inhibition” value in experiment [1] (setting [9]) was −26.55%; in experiment [1] (Table 17D, light, rate 1000 μM) it was −28.81%. Also, the “Mean Radial Growth” value is 14.30 mm in experiment [1] (Table 17C, dark, rate 31.62 μM); 14.33 mm in experiment [1] (Table 17C, dark, rate 100 μM); 14.60 mm in experiment [1] (Table 17C, dark, rate 316.2 μM); 14.40 mm in experiment [1] (Table 17C, dark, rate 1000 μM); 14.03 mm in experiment [1] (setting [8]); 14.20 mm in experiment [1] (Table 17D, light, rate 100 μM). In addition, the “Mean Radial Growth” value in experiment [1] (setting [9]) is listed as 14.93 mm; in experiment [1] (Table 17D, light, rate 1000 μM), 15.20 mm.
